Results taken from patent publication US5773239A, “Mannosidase inhibitors, process for their preparation and their use as therapeutic agents” (Mount Sinai Hospital Corporation., priority 1995, dated 1998).

Tests used:
[1] = target: T1, rat liver Golgi α-mannosidase II (Rattus norvegicus, UniProt P28494); assay: Rat liver Golgi α-mannosidase II assay; assay type: biochemical; settings: for IC50: para-nitrophenyl α-mannose, pH 5.6, read-out: IC50 ManII; for Ratio: ratio of lyso to ManII IC50 values
T1 construct: The assay for rat liver Golgi α-mannosidase II; from tissue; host or cells: rat liver (Golgi)
T1 sequence (P28494 1-1148): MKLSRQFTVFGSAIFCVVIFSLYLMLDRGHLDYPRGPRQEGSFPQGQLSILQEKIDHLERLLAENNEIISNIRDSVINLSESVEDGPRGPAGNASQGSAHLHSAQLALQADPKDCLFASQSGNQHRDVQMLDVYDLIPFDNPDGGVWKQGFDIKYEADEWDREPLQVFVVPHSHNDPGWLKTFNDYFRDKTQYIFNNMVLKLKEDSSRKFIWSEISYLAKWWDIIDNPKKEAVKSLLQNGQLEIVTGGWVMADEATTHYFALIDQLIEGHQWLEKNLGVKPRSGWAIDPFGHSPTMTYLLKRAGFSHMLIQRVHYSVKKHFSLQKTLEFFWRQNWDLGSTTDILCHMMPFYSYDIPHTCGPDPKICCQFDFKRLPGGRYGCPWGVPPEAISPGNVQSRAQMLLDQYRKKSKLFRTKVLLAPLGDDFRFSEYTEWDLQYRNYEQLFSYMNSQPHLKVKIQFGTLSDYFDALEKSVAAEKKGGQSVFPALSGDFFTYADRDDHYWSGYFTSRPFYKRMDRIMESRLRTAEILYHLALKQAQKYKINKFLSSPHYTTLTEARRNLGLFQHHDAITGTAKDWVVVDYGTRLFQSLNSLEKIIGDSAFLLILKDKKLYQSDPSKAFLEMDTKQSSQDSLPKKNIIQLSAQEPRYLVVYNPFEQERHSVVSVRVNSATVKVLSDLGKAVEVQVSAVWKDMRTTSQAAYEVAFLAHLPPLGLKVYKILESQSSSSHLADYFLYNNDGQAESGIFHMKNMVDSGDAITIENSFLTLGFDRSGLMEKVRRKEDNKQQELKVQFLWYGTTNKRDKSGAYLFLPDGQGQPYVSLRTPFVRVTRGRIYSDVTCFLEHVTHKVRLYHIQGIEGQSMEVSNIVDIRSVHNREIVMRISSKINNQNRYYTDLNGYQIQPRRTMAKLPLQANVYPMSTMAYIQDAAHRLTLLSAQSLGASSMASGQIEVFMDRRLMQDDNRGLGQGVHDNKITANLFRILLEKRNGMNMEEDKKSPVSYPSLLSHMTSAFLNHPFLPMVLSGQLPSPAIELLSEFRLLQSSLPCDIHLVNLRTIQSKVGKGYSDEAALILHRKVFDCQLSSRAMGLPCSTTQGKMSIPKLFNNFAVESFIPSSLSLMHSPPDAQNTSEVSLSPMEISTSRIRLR
Protocol: The assay for rat liver Golgi α-mannosidase II contained 5 mM para-nitrophenylα-mannose, 40 mM sodium acetate pH 5.6, plus serially diluted test compouunds and mannosidase enzyme in a total volume of 50 ul, in 96 well plates. Plates were incubated 45 min at 37° C., then the reaction was stopped with 50 μl of 0.5M sodium carbonate. […] The lysosomal mannosidase was done in the same procedure but with 40 mM sodium acetate buffer pH 5.0. The numbers in the table are IC50 values in μM for inhibition of mannosidase activity.

lysosomal mannosidase = assay: Lysosomal mannosidase assay (pH 5.0); assay type: biochemical; settings: para-nitrophenyl α-mannose
Protocol: The assay for rat liver Golgi α-mannosidase II contained 5 mM para-nitrophenylα-mannose, 40 mM sodium acetate pH 5.6, plus serially diluted test compouunds and mannosidase enzyme in a total volume of 50 ul, in 96 well plates. Plates were incubated 45 min at 37° C., then the reaction was stopped with 50 μl of 0.5M sodium carbonate. The absorbance of reaction products was read at 405 nm. The lysosomal mannosidase was done in the same procedure but with 40 mM sodium acetate buffer pH 5.0. The numbers in the table are IC50 values in μM for inhibition of mannosidase activity.

MDAY-D2 tumor cells [2] = assay: L-PHA toxicity assay (inhibition of oligosaccharide processing in cells); assay type: cell-based, mouse; settings: MDAY-D2 mouse lymphoma cells; read-out: IC50 for protection of cells from toxicity of LPHA lectin
Protocol: MDAY-D2 tumor cells were inoculated into 96 well micro-test plates at 2×10^4 cells/well, and containing serial dilutions of SW or SW analogues in MEM plus 10% FCS. The cells were cultured for 18-20 hr, followed by the addition of L-PHA at 25 μg/ml for an additional 24 hr. Cell proliferation was measured by adding 0.5 μCi/well of ^3 H-thymidine for 3-4 hr, harvesting onto glass fibre disks using a Titertek harvester and the disks were counted in a liquid scintillation counter. The apparent IC50 values for SW and the analogues are the drug concentrations showing 50% protection from L-PHA toxicity; that is 50% ^3 H-thymidine incorporated compared with cells grown in the absence of L-PHA. In experiments using the esterase inhibitor diethyl p-nitrophenyl phosphate, the compound was added to MDAY-D2 cells 4 hr prior to the α-mannosidase inhibitors and was present through-out the experiment.

[3] = Cellular toxicity / cell growth with compound alone (no L-PHA); assay type: cell-based; settings: MDAY-D2 mouse lymphoma cells; read-out: Toxicity (cellular toxicity observed with compound alone)
MDAY-D2 tumor cells [4] = settings: no drug; cited from earlier work

| selectivity Mannosidase II versus lysosomal mannosidase [1] | Molecule | IC50 [1] | Ratio [1] | IC50 (lysosomal mannosidase) | IC50 (MDAY-D2 tumor cells [2]) | Concentration at which toxicity was seen with compound alone [3] | D50 for L-PHA toxicity (MDAY-D2 tumor cells [4]) |
| --- | --- | --- | --- | --- | --- | --- | --- |
| favourable to Mannosidase II | OC[C@@H]1[C@H](O)[C@H](O)CN1Cc1ccccc1 [GD002] | 19 µM | 11.42 | 217 µM |  |  |  |
|  | CN1C[C@@H](O)[C@@H](O)[C@H]1CO [GD003, N-methyl-DIL] | 26.3 µM | 0.517 | 13.6 µM | 312 µM | > 5000 µM |  |
|  | CCCCN1C[C@@H](O)[C@@H](O)[C@H]1CO [GD004, N-butyl-DIL] | 50.9 µM | 0.50 | 25.5 µM | 625 µM | > 2500 µM |  |
|  | CCN1C[C@@H](O)[C@@H](O)[C@H]1CO [GD005, N-ethyl-DIL] | 33.9 µM | 0.42 | 14.3 µM | 312 µM | > 5000 µM |  |
|  | CCCN1C[C@@H](O)[C@@H](O)[C@H]1CO [GD006, N-propyl-DIL] | 22.1 µM | 0.87 | 19.2 µM | 156 µM | > 2500 µM |  |
|  | OC[C@@H]1[C@H](O)[C@H](O)CN1CC1CC1 [GD008, N-cyclo-propyl-methyl-DIL] | 8.3 µM | 0.59 | 4.9 µM | 40 µM | > 2500 µM |  |
|  | CC(O)C1[C@H](O)[C@H](O)CN1CC1CC1 (stereo partly drawn) [GD013] | 114 µM | 1.69 | 193 µM |  |  |  |
|  | CC(O)C1[C@H](O)[C@H](O)CN1CC1CCCCC1 (stereo partly drawn) [GD014] | 140 µM | 1.12 | 157 µM |  |  |  |
|  | L-PHA: toxic plant lectin (leukoagglutinin) purchased from Pharmacia |  |  |  |  |  | 5 µg/mL |
